Each molecule was assayed against T1, Dihydropteroate synthase (Escherichia coli K-12, UniProt P0AC13) (assay: In vitro concentration required to inhibit partially purified dihydropteroate synthase of Escherichia coli by 50%). Details: read-out: I50.
T1 sequence (P0AC13 whole entry): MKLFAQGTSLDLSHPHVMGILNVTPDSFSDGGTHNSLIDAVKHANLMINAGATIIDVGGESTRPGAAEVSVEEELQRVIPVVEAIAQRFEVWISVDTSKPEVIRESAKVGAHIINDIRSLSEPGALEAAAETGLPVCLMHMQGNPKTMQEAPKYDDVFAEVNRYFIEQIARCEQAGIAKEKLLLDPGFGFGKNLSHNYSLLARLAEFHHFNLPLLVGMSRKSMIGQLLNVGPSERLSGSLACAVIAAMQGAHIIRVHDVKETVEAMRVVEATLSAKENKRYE
Type: functional
An IC50 of 7.3 µM was found for `COc1ccc(OCCCNc2nc(N)nc(O)c2N=O)cc1` in this work.
An IC50 of 0.6 µM was found for `Cc1ccc(S(=O)(=O)Nc2ccc(OCCCNc3nc(N)nc(O)c3N=O)cc2)cc1` in this work.
An IC50 of 2.5 µM was found for `CS(=O)(=O)c1ccc(OCCCNc2nc(N)nc(O)c2N=O)cc1` in this work.
An IC50 of 2.1 µM was found for `CCCCOc1ccc(OCCCNc2nc(N)nc(O)c2N=O)cc1` in this work.
An IC50 of 1.4 µM was found for `Nc1nc(O)c(N=O)c(NCCCOc2ccc(C(F)(F)F)cc2)n1` in this work.
An IC50 of 2.9 µM was found for `CCOC(=O)c1ccc(OCCCNc2nc(N)nc(O)c2N=O)cc1` in this work.
An IC50 of 1 µM was found for `Nc1nc(O)c(N=O)c(NCCCOc2ccc([N+](=O)[O-])cc2)n1` in this work.
An IC50 of 0.7 µM was found for `COc1cc(OC)cc(OCCCNc2nc(N)nc(O)c2N=O)c1` in this work.
An IC50 of 2.2 µM was found for `Nc1nc(O)c(N=O)c(NCCCOc2ccc(O)cc2)n1` in this work.
An IC50 of 3 µM was found for `CCOC(=O)c1ccc(NCCCCNc2nc(N)nc(O)c2N=O)cc1` in this work.
An IC50 of 8.9 µM was found for `Nc1nc(O)c(N=O)c(NCCCNc2ccc(C(=O)O)cc2)n1` in this work.
An IC50 of 6.6 µM was found for `Nc1nc(NCCCOc2ccc(C(=O)O)cc2)c(N=O)c(=O)[nH]1` in this work.
An IC50 of 3 µM was found for `Nc1nc(O)c(N=O)c(NCCCOc2ccc(OCc3ccccc3)cc2)n1` in this work.
An IC50 of 2 µM was found for `COc1cc(OCCCNc2nc(N)nc(O)c2N=O)cc(OC)c1OC` in this work.
An IC50 of 18 µM was found for `Nc1nc(O)c(N=O)c(NCCCOc2ccccc2OCc2ccccc2)n1` in this work.
An IC50 of 1.4 µM was found for `Nc1nc(O)c(N=O)c(NCCCOc2cc(Cl)cc(Cl)c2)n1` in this work.
An IC50 of 2.5 µM was found for `Nc1nc(O)c(N=O)c(NCCCCNc2ccc(C(=O)O)cc2)n1` in this work.
An IC50 of 1 µM was found for `Nc1nc(O)c(N=O)c(NCCCOc2ccc(Cl)cc2)n1` in this work.

From ChEMBL document CHEMBL1123172, “Inhibitors of dihydropteroate synthase: substituent effects in the side-chain aromatic ring of 6-[[3-(aryloxy)propyl]amino]-5-nitrosoisocytosines and synthesis and inhibitory potency of bridged 5-nitrosoisocytosine-p-aminobenzoic acid analogues” (J Med Chem, 1986)
